{"source": "patent US12612577B2", "about": "“Perfumed compositions, process of preparing thereof and uses” (MINASOLVE SAS, priority 2019, dated 2026)", "origin": "cited, not measured here", "system": "bacteria and fungi", "conditions": "against bacteria and fungi", "data": [{"smiles": "CCCC(O)CO", "note": "(stereo not shown) [1,2-pentanediol]", "values": [{"measurement": "minimum inhibitory concentration (MIC)", "result": 5, "unit": "%"}]}]}
